PubChem BioAssay AID2060512 (Molecular Pharmacology Branch, DTP, NCI, 2025)

System: 186277-243-T-J2-PDC complex spheroid viability
Assay: Anticancer human tumor 186277-243-T-J2-PDC patient-derived colon adenocarcinoma cell line growth inhibition [GQUAD]
Settings: for IC50: curve of first compound; for viability, T/C: stronger effect = lower value
Procedure, shortened: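 Tumor cells were grown as complex spheroids with HUVEC endothelial cells and mesenchymal stem cells as stroma. G-quadruplex stabilizers were combined with targeted agents over half-log dilutions from near the clinical Cmax, or from 10 microM.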

[1] = second compound 0.0316 µM, first compound 0.0316 µM
[2] = second compound 0.0316 µM, first compound 0.1 µM
[3] = second compound 0.0316 µM, first compound 0.316 µM
[4] = second compound 0.0316 µM, first compound 1 µM
[5] = second compound 0.0316 µM, first compound 3.16 µM
[6] = second compound 0.0316 µM, first compound 10 µM
[7] = second compound 0.1 µM, first compound 0.0316 µM
[8] = second compound 0.1 µM, first compound 0.1 µM
[9] = second compound 0.1 µM, first compound 0.316 µM
[10] = second compound 0.1 µM, first compound 1 µM
[11] = second compound 0.1 µM, first compound 3.16 µM
[12] = second compound 0.1 µM, first compound 10 µM
[13] = second compound 0.316 µM, first compound 0.0316 µM
[14] = second compound 0.316 µM, first compound 0.1 µM
[15] = second compound 0.316 µM, first compound 0.316 µM
[16] = second compound 0.316 µM, first compound 1 µM
[17] = second compound 0.316 µM, first compound 3.16 µM
[18] = second compound 0.316 µM, first compound 10 µM
[19] = second compound 1 µM, first compound 0.0316 µM
[20] = second compound 1 µM, first compound 0.1 µM
[21] = second compound 1 µM, first compound 0.316 µM
[22] = second compound 1 µM, first compound 1 µM
[23] = second compound 1 µM, first compound 3.16 µM
[24] = second compound 1 µM, first compound 10 µM
[25] = second compound 3.16 µM, first compound 0.0316 µM
[26] = second compound 3.16 µM, first compound 0.1 µM
[27] = second compound 3.16 µM, first compound 0.316 µM
[28] = second compound 3.16 µM, first compound 1 µM
[29] = second compound 3.16 µM, first compound 3.16 µM
[30] = second compound 3.16 µM, first compound 10 µM
[31] = second compound 10 µM, first compound 0.0316 µM
[32] = second compound 10 µM, first compound 0.1 µM
[33] = second compound 10 µM, first compound 0.316 µM
[34] = second compound 10 µM, first compound 1 µM
[35] = second compound 10 µM, first compound 3.16 µM
[36] = second compound 10 µM, first compound 10 µM
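Note: spheroids exposed to drugs for 7 days.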
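Throughout, for viability, T/C: 100% = DMSO vehicle control viability.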

`C=CCn1c(=O)c2cnc(Nc3ccc(N4CCN(C)CC4)cc3)nc2n1-c1cccc(C(C)(C)O)n1` + CN(C)c1ccc(Nc2c3ccc(NC(=O)CCN4CCCC4)cc3nc3cc(NC(=O)CCN4CCCC4)ccc23)cc1 showed an IC50 (second compound 0.0316 µM) of 174 nM, an IC50 (second compound 0.1 µM) of 175 nM and an IC50 (second compound 0.316 µM) of 200 nM. It also gave an IC50 (second compound 1 µM) of 189 nM, an IC50 (second compound 3.16 µM) of 179 nM and an IC50 (second compound 10 µM) of 184 nM. It also gave a viability, T/C [1] of 107%, a viability, T/C [2] of 81.7% and a viability, T/C [3] of 15.5%. For the same compound, the viability, T/C [4] was 10.1%, the viability, T/C [5] was 9.78% and the viability, T/C [6] was 13%. For the same compound, the viability, T/C [7] was 106%, the viability, T/C [8] was 83.8% and the viability, T/C [9] was 14.5%. It also gave a viability, T/C [10] of 8.74%, a viability, T/C [11] of 8.46% and a viability, T/C [12] of 11.9%. The viability, T/C [13] was 96.8%, the viability, T/C [14] was 94.4% and the viability, T/C [15] was 20.9%. For the same compound, the viability, T/C [16] was 8.7%, the viability, T/C [17] was 9.7% and the viability, T/C [18] was 12.2%. For the same compound, the viability, T/C [19] was 93.1%, the viability, T/C [20] was 99.1% and the viability, T/C [21] was 13%. The viability, T/C [22] was 9.53%, the viability, T/C [23] was 9.39% and the viability, T/C [24] was 12.5%. For the same compound, the viability, T/C [25] was 110%, the viability, T/C [26] was 85.3% and the viability, T/C [27] was 15.4%. It also gave a viability, T/C [28] of 10.1%, a viability, T/C [29] of 9.74% and a viability, T/C [30] of 14.9%. For the same compound, the viability, T/C [31] was 101%, the viability, T/C [32] was 88.6% and the viability, T/C [33] was 16%. For the same compound, the viability, T/C [34] was 10.1%, the viability, T/C [35] was 8.2% and the viability, T/C [36] was 12.7%.

In the case of `CC(C)(O)C1CCC(Nc2ccc3ncc(-c4cccc(C(F)(F)F)c4)n3n2)CC1` (stereo not drawn) + CN(C)c1ccc(Nc2c3ccc(NC(=O)CCN4CCCC4)cc3nc3cc(NC(=O)CCN4CCCC4)ccc23)cc1, the IC50 (second compound 0.0316 µM) is reported as 2700 nM, the IC50 (second compound 0.1 µM) is reported as 4050 nM and the IC50 (second compound 0.316 µM) is reported as 2780 nM. It also gave an IC50 (second compound 1 µM) of 5190 nM, an IC50 (second compound 3.16 µM) of 2890 nM and an IC50 (second compound 10 µM) of 3530 nM. It also gave a viability, T/C [1] of 103%, a viability, T/C [2] of 84.8% and a viability, T/C [3] of 113%. For the same compound, the viability, T/C [4] was 92.4%, the viability, T/C [5] was 42.7% and the viability, T/C [6] was 44%. It also gave a viability, T/C [7] of 98.8%, a viability, T/C [8] of 89.1% and a viability, T/C [9] of 91.4%. It also gave a viability, T/C [10] of 92.1%, a viability, T/C [11] of 51.6% and a viability, T/C [12] of 44.1%. For the same compound, the viability, T/C [13] was 107%, the viability, T/C [14] was 92.7% and the viability, T/C [15] was 108%. The viability, T/C [16] was 92.3%, the viability, T/C [17] was 44.9% and the viability, T/C [18] was 36%. It also gave a viability, T/C [19] of 93.1%, a viability, T/C [20] of 99.5% and a viability, T/C [21] of 85.7%. For the same compound, the viability, T/C [22] was 92%, the viability, T/C [23] was 56.2% and the viability, T/C [24] was 41.7%. The viability, T/C [25] was 93.1%, the viability, T/C [26] was 93.5% and the viability, T/C [27] was 108%. For the same compound, the viability, T/C [28] was 81.6%, the viability, T/C [29] was 48.2% and the viability, T/C [30] was 27.6%. For the same compound, the viability, T/C [31] was 133%, the viability, T/C [32] was 107% and the viability, T/C [33] was 96.7%. It also gave a viability, T/C [34] of 98.2%, a viability, T/C [35] of 41.4% and a viability, T/C [36] of 22.8%.

In the case of `COc1ncnc(C2CC2)c1-c1ncc2cnn(Cc3ccc(-c4nc(C(F)(F)F)cn4C(C)C)cc3)c2n1` + CN(C)c1ccc(Nc2c3ccc(NC(=O)CCN4CCCC4)cc3nc3cc(NC(=O)CCN4CCCC4)ccc23)cc1, the IC50 (second compound 0.0316 µM) is reported as > 10000 nM, the IC50 (second compound 0.1 µM) is reported as > 10000 nM and the IC50 (second compound 0.316 µM) is reported as > 10000 nM. The IC50 (second compound 1 µM) was > 10000 nM, the IC50 (second compound 3.16 µM) was > 10000 nM and the IC50 (second compound 10 µM) was > 10000 nM. It also gave a viability, T/C [1] of 106%, a viability, T/C [2] of 102% and a viability, T/C [3] of 101%. The viability, T/C [4] was 101%, the viability, T/C [5] was 106% and the viability, T/C [6] was 98.1%. It also gave a viability, T/C [7] of 102%, a viability, T/C [8] of 93.2% and a viability, T/C [9] of 105%. It also gave a viability, T/C [10] of 94.8%, a viability, T/C [11] of 99% and a viability, T/C [12] of 98.2%. It also gave a viability, T/C [13] of 92.8%, a viability, T/C [14] of 110% and a viability, T/C [15] of 105%. For the same compound, the viability, T/C [16] was 98.7%, the viability, T/C [17] was 103% and the viability, T/C [18] was 85.6%. The viability, T/C [19] was 100%, the viability, T/C [20] was 114% and the viability, T/C [21] was 101%. For the same compound, the viability, T/C [22] was 107%, the viability, T/C [23] was 112% and the viability, T/C [24] was 84.3%. It also gave a viability, T/C [25] of 99.1%, a viability, T/C [26] of 98% and a viability, T/C [27] of 113%. For the same compound, the viability, T/C [28] was 108%, the viability, T/C [29] was 118% and the viability, T/C [30] was 95%. It also gave a viability, T/C [31] of 111%, a viability, T/C [32] of 116% and a viability, T/C [33] of 106%. It also gave a viability, T/C [34] of 99.2%, a viability, T/C [35] of 105% and a viability, T/C [36] of 53.8%.

In the case of `Cc1[nH]c2ccccc2c1CCNCc1ccc(/C=C/C(=O)NO)cc1` + CN(C)c1ccc(Nc2c3ccc(NC(=O)CCN4CCCC4)cc3nc3cc(NC(=O)CCN4CCCC4)ccc23)cc1, the IC50 (second compound 0.0316 µM) is reported as 58.1 nM, the IC50 (second compound 0.1 µM) is reported as 55.6 nM and the IC50 (second compound 0.316 µM) is reported as 58.8 nM. The IC50 (second compound 1 µM) was 63.2 nM, the IC50 (second compound 3.16 µM) was 58.3 nM and the IC50 (second compound 10 µM) was 58.1 nM. It also gave a viability, T/C (second compound 0.0316 µM, first compound 0.000999 µM) of 99.5%, a viability, T/C (second compound 0.0316 µM, first compound 0.00316 µM) of 86.5% and a viability, T/C (second compound 0.0316 µM, first compound 0.00999 µM) of 96.7%. For the same compound, the viability, T/C [1] was 92.6%, the viability, T/C (second compound 0.0316 µM, first compound 0.0999 µM) was 12.1% and the viability, T/C [3] was 0.65%. For the same compound, the viability, T/C (second compound 0.1 µM, first compound 0.000999 µM) was 115%, the viability, T/C (second compound 0.1 µM, first compound 0.00316 µM) was 93.7% and the viability, T/C (second compound 0.1 µM, first compound 0.00999 µM) was 80.6%. The viability, T/C [7] was 84.6%, the viability, T/C (second compound 0.1 µM, first compound 0.0999 µM) was 14.9% and the viability, T/C [9] was 0.86%. For the same compound, the viability, T/C (second compound 0.316 µM, first compound 0.000999 µM) was 76.5%, the viability, T/C (second compound 0.316 µM, first compound 0.00316 µM) was 96.9% and the viability, T/C (second compound 0.316 µM, first compound 0.00999 µM) was 91.7%. For the same compound, the viability, T/C [13] was 87.8%, the viability, T/C (second compound 0.316 µM, first compound 0.0999 µM) was 17.7% and the viability, T/C [15] was 2.93%. The viability, T/C (second compound 1 µM, first compound 0.000999 µM) was 86.3%, the viability, T/C (second compound 1 µM, first compound 0.00316 µM) was 94.6% and the viability, T/C (second compound 1 µM, first compound 0.00999 µM) was 87.4%. The viability, T/C [19] was 107%, the viability, T/C (second compound 1 µM, first compound 0.0999 µM) was 21% and the viability, T/C [21] was 1.2%. The viability, T/C (second compound 3.16 µM, first compound 0.000999 µM) was 93%, the viability, T/C (second compound 3.16 µM, first compound 0.00316 µM) was 93% and the viability, T/C (second compound 3.16 µM, first compound 0.00999 µM) was 96%. The viability, T/C [25] was 92%, the viability, T/C (second compound 3.16 µM, first compound 0.0999 µM) was 13.1% and the viability, T/C [27] was 1.46%. It also gave a viability, T/C (second compound 10 µM, first compound 0.000999 µM) of 82.8%, a viability, T/C (second compound 10 µM, first compound 0.00316 µM) of 92.6% and a viability, T/C (second compound 10 µM, first compound 0.00999 µM) of 97.2%. The viability, T/C [31] was 96.2%, the viability, T/C (second compound 10 µM, first compound 0.0999 µM) was 12.4% and the viability, T/C [33] was 0.74%.
